Source: ChEMBL document CHEMBL4184094, “Spiro-1-benzofuranpiperidinylalkanoic acids as a novel and selective sphingosine S1P5 receptor agonist chemotype” (Bioorg Med Chem Lett, 2018)
Values after ≈ are worked out from the molar mass of the structure shown.

What was measured:
[1] = target: Sphingosine 1-phosphate receptor 1 (Homo sapiens, UniProt P21453); assay: Agonist activity at human S1P1 receptor expressed in CHO cells assessed as increase in calcium flux by aequorin-derived luminescence assay; type: functional, cell-based
[2] = target: Sphingosine 1-phosphate receptor 3 (Homo sapiens, UniProt Q99500); assay: Agonist activity at human S1P3 receptor expressed in CHO cells assessed as increase in calcium flux by aequorin-derived luminescence assay; type: functional, cell-based
[3] = Half life in human microsomes assessed per mg protein; type: ADME, Microsome
[4] = Aqueous kinetic solubility of the compound by turbidimetric method; type: physicochemical; conditions: buffer; read-out: Kinetic_solubility
[5] = Intrinsic clearance in human microsomes assessed per mg protein; type: ADME, Microsome
[6] = target: Sphingosine 1-phosphate receptor 5 (Homo sapiens, UniProt Q9H228); assay: Agonist activity at human S1P5 receptor expressed in CHO cells assessed as increase in calcium flux by aequorin-derived luminescence assay; type: functional, cell-based
Homo sapiens [7] = species: Homo sapiens; assay: Selectivity ratio of EC50 for human S1P5 receptor expressed in CHO cells to EC50 for human S1P3 receptor expressed in CHO cells; type: cell-based
Homo sapiens [8] = species: Homo sapiens; assay: Selectivity ratio of EC50 for human S1P5 receptor expressed in CHO cells to EC50 for human S1P1 receptor expressed in CHO cells; type: cell-based
[9] = Ratio of drug uptake in CNS to plasma in po dosed rat; type: ADME, organism-based; conditions: CNS and plasma
[10] = Oral bioavailability in rat; type: ADME, organism-based; conditions: in vivo

Sphingosine 1-phosphate receptor 5, sequence (Q9H228 whole entry): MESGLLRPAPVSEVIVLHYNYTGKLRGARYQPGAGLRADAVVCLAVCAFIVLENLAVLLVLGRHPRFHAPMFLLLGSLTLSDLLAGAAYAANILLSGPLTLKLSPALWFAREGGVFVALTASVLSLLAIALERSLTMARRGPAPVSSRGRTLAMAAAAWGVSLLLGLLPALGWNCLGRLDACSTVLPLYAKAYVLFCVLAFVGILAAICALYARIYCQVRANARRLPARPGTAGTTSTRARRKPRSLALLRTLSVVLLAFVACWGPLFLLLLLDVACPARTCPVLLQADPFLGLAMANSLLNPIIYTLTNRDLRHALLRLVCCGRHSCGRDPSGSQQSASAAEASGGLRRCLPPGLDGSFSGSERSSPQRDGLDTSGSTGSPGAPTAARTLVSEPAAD
Sphingosine 1-phosphate receptor 1, sequence (P21453 whole entry): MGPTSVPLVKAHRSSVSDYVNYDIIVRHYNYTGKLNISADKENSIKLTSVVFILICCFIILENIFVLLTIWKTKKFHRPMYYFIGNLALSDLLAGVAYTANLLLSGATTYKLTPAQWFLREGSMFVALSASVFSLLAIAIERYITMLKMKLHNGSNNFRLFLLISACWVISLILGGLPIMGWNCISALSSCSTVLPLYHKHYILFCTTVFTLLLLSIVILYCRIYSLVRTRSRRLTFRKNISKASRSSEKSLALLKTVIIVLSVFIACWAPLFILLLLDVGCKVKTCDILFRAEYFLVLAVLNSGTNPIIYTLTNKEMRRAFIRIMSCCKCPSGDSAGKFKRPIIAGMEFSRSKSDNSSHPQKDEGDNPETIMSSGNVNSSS
Sphingosine 1-phosphate receptor 3, sequence (Q99500 whole entry): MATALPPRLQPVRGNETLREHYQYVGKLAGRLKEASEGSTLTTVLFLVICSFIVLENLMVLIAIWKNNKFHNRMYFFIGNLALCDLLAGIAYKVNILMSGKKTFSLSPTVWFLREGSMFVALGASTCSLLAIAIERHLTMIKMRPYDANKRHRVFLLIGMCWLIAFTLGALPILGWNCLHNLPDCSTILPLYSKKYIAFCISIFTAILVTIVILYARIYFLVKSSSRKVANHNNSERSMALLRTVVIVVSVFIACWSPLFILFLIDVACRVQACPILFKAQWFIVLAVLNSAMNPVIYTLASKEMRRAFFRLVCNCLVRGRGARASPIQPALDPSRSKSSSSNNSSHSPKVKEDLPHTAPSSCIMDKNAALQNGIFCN

Compound | EC50 [1] | EC50 [2] | half-life [3] | solubility kinetic [4] | microsomal CLint [5] | EC50 [6] | Ratio EC50 (Homo sapiens [7]) | Ratio EC50 (Homo sapiens [8]) | t1/2 [3] | CL [5] | Kp [9] | bioavailability [10]
CCc1cccc(CC)c1COc1ccc2c(c1)OCC21CCN(CCC(=O)O)CC1 | 1580 nM | 1580 nM | 25.2 h | ≥ 100 µM | 0.92 µL/min/mg | 20 nM |  |  |  |  |  | 
Cl.O=C(O)CCN1CCC2(CC1)COc1cc(OCc3cc(Cl)nc(Cl)c3)ccc12 | > 31600 nM | > 10000 nM | 1.67 h | > 100 µM | 13.9 µL/min/mg | 316 nM |  |  |  |  |  | 
Cl.O=C(O)CCN1CCC2(CC1)COc1c2ccc(OCc2c(Cl)cccc2Cl)c1F | 1000 nM | > 10000 nM | 3.55 h | 30 to 100 µM | 6.5 µL/min/mg | 6.31 nM | 1000 |  |  |  |  | 
Cl.O=C(O)CCN1CCCC2(COc3cc(OCc4c(Cl)cccc4Cl)ccc32)C1 (stereo unspecified) |  |  | 7.57 h | ≥ 100 µM | 3.1 µL/min/mg | 100 nM | 100 |  |  |  |  | 
Cl.O=C(O)CCN1CCC2(CC1)COc1cc(SCc3c(Cl)cccc3Cl)ccc12 | > 10000 nM | 3980 nM | 1.08 h | ≥ 100 µM | 21 µL/min/mg | 12.6 nM | 100 | 1000 |  |  |  | 
Cl.O=C(O)CCN1CCC2(CC1)COc1cc(OCc3c(F)cccc3Cl)ccc12 | 6310 nM |  | 8.42 h | 30 to 100 µM | 2.7 µL/min/mg | 63.1 nM | 100 |  |  |  |  | 
O=C(O)CN1CCC2(CC1)COc1cc(OCc3c(Cl)cccc3Cl)ccc12 | 6310 nM | > 1000 nM |  |  |  | 31.6 nM | 100 |  |  |  |  | 
CC(C)c1cccc(Cl)c1COc1ccc2c(c1)OCC21CCN(CCC(=O)O)CC1.Cl | 1260 nM | > 10000 nM | 11.2 h | 30 to 100 µM | 2.1 µL/min/mg | 25.1 nM | 100 |  |  |  |  | 
CCCc1cccc(Cl)c1COc1ccc2c(c1)OCC21CCN(CCC(=O)O)CC1 | 2000 nM | 2000 nM |  |  |  | 15.8 nM | 100 |  |  |  |  | 
Cl.O=C(O)CN1CCC2(CC1)COc1cc(S(=O)(=O)Cc3c(Cl)cccc3Cl)ccc12 | > 31600 nM | > 10000 nM |  | ≥ 100 µM |  | 794 nM |  |  | 2.15 h | 33 µL/min |  | 
O=P(O)(O)OCCN1CCC2(CC1)COc1cc(OCc3c(Cl)cccc3Cl)ccc12 | 251 nM | > 10000 nM |  |  |  | 20 nM | 100 |  |  |  |  | 
O=C(O)C(F)(F)F.O=C(O)CCN1CCC2(CC1)COc1cc(OCc3ccccc3Cl)ccc12 |  | > 31600 nM | 2.55 h | 30 to 100 µM | 9.1 µL/min/mg | 126 nM |  |  |  |  |  | 
O=C(O)CCN1CCC2(CC1)COc1cc(OCc3ccccc3)ccc12 | > 31600 nM | > 10000 nM |  |  |  | 1000 nM |  |  |  |  |  | 
CCc1cccc(Cl)c1COc1ccc2c(c1)OCC21CCCN(CCC(=O)O)C1.Cl (stereo unspecified) | > 31600 nM | > 10000 nM | 6.82 h | ≥ 100 µM | 3.4 µL/min/mg | 31.6 nM | 100 | 1000 |  |  |  | 
Cc1cc(Cl)c(COc2ccc3c(c2)OCC32CCN(CCC(=O)O)CC2)c(Cl)c1 | 316 nM |  |  |  |  | 7.94 nM |  |  |  |  |  | 
CCCCCCCCc1ccc(CCC(N)(CO)CO)cc1 [FINGOLIMOD] |  | 2510 nM |  | 1 to 6.5 µM (≈ 0.307 to 2 µg/mL) |  | 3160 nM |  |  |  |  |  | 

Compound | EC50 [1] | EC50 [2] | half-life [3] | solubility kinetic [4] | microsomal CLint [5] | EC50 [6] | Ratio EC50 (Homo sapiens [7]) | Ratio EC50 (Homo sapiens [8]) | t1/2 [3] | CL [5] | Kp [9] | bioavailability [10]
Cl.O=C(O)CCN1CCC2(CC1)COc1cc(OCc3c(Cl)cccc3Cl)ccc12 | 6310 nM | > 10000 nM | 7.45 h | ≥ 100 µM | 3.1 µL/min/mg | 158 nM |  |  |  |  | 0.2 | 
CCc1cccc(Cl)c1CSc1ccc2c(c1)OCC21CCN(CCC(=O)O)CC1.Cl | 126 nM | > 1000 nM | 0.55 h | 30 to 100 µM | 42 µL/min/mg | 2.51 nM | 100 |  |  |  |  | 
CCc1cccc(Cl)c1COc1ccc2c(c1)OCC21CCN(CC(C)C(=O)O)CC1.Cl (stereo unspecified) | 316 nM | > 10000 nM | 3.8 h | ≥ 100 µM | 6.1 µL/min/mg | 15.8 nM | 100 |  |  |  |  | 
O=C(O)CCN1CCC2(CC1)COc1cc(OCCCc3ccccc3)ccc12 | 5010 nM | 1580 nM |  |  |  | 2000 nM |  |  |  |  |  | 
CC(CN1CCC2(CC1)COc1cc(OCc3c(Cl)cccc3Cl)ccc12)C(=O)O (stereo unspecified) | 1260 nM |  |  |  |  | 63.1 nM |  |  |  |  |  | 
O=C(O)CCN1CCC2(CC1)COc1cc(OCc3cc(Cl)ccc3Cl)ccc12 | 12600 nM | 1000 nM |  |  |  | 200 nM |  |  |  |  |  | 
O=C(O)CCN1CCC2(CC1)COc1cc(OCc3cccc(Cl)c3Cl)ccc12 | 1580 nM | > 10000 nM |  |  |  | 200 nM |  |  |  |  |  | 
O=C(O)CCN1CCC2(CC1)COc1cc(OCc3c(Cl)cccc3C(F)(F)F)ccc12 | 316 nM | > 10000 nM |  |  |  | 126 nM |  |  |  |  |  | 
O=C(O)CCN1CCC2(CC1)COc1cc(OCc3cccc(Cl)c3)ccc12 | > 10000 nM | > 10000 nM |  |  |  | 316 nM |  |  |  |  |  | 
Cl.O=C(O)CCN1CCC2(CC1)COc1cc(/C=C/c3c(Cl)cccc3Cl)ccc12 | > 31600 nM |  | 30.3 h | 30 to 100 µM | 0.76 µL/min/mg | 12.6 nM |  |  |  |  | 0.8 | 73%
Cl.O=C(O)CCN1CCC2(CC1)COc1cc(C#Cc3ccccc3)ccc12 |  |  | 2.78 h | 100 µM | 8.3 µL/min/mg | 39.8 nM |  |  |  |  |  | 
O=C(O)CCCN1CCC2(CC1)COc1cc(OCc3c(Cl)cccc3Cl)ccc12 | 5010 nM | 1260 nM |  |  |  | 15.8 nM |  |  |  |  |  | 
O=C(O)CCN1CCC2(CC1)COc1cc(OCc3c(Cl)cccc3OC(F)(F)F)ccc12 | 3980 nM |  |  |  |  | 20 nM |  |  |  |  |  | 
O=C(O)CCN1CCC2(CC1)COc1cc(C#Cc3ccccc3Cl)ccc12 | > 31600 nM | > 10000 nM |  |  |  | 25.1 nM | 100 | 1000 |  |  |  | 
CCc1cccc(Cl)c1COc1ccc2c(c1)OCC21CCN(CCC(=O)O)CC1 |  | > 10000 nM |  |  |  | 15.8 nM | 100 |  |  |  |  | 
